Reference: US8748569B2, “Peptide amphiphiles and methods to electrostatically control bioactivity of the ikvav peptide epitope” (Northwestern University, priority 2011, dated 2014)
Peptide text beside a SMILES is read from it. * marks the point of attachment. Palmitoyl = CCCCCCCCCCCCCCCC(=O)*

Legend:
[1] = test system: P19 embryonal carcinoma cells differentiated into neurons; test: Neurite outgrowth of neurons cultured in peptide amphiphile gels; format: cell-based, murine; conditions: gels containing half the concentration (0.1 wt %) of the PA; compared to gels of PA 1
Dynamic light scattering = format: physicochemical
[2] = Solubility in physiologically relevant monovalent salt solution; format: physicochemical; conditions: monovalent salt solution composed of 150 mM NaCl and 3 mM KCl
[3] = Transmission electron microscopy (cryoTEM / conventional TEM) of PA nanostructures; format: physicochemical
Method: The nanostructure of each PA molecule under physiologically relevant conditions was investigated using electron microscopy. Samples for vitreous ice cryo-transmission electron microscopy (cryoTEM) were prepared from a 0.1-0.5 wt % PA solution dissolved in 150 mM NaCl, 3 mM KCl, or in a 150 mM NaCl, 3 mM KCl, and 5 mM CaCl2 solution, both at a pH of 7.2-7.4. The solutions were then heated to 80° C. in a water bath for 1 hr, and then slowly cooled to room temperature over the course of 8 hr. 10 μL of each solution was pipetted onto a plasma cleaned holey carbon TEM grid (Electron Microscopy Sciences), blotted and plunged into liquid ethane using a FEI Vitrobot Mark IV. Samples were kept at −180° C. and imaged using a JEOL 1230 TEM operating at 100 kV.
Samples for conventional TEM microscopy were prepared from 0.1 wt % PA solution dissolved in ultrapure water and adjusted to a pH of 7.2-7.4 by adding NaOH. The solutions were then heated to 80° C. in a water bath for 1 hr, and then slowly cooled to room temperature over the course of 8 hr, unless noted otherwise. 2 μL of a 0.1 wt % PA solution was pipetted onto a Carbon Formvar grid (Electron Microscopy Sciences) and allowed to dry. The samples were then negatively stained by pipetting 2 uL of a 2 wt % Uranyl acetate solution and allowed to dry. Each sample was imaged using a JEOL 1230 TEM operating at 100 kV. The average diameter of nanofibers was obtained via measuring 40-100 different fibers from solutions and grids prepared throughout multiple days.
The assembly of each PA molecule under physiologically relevant conditions was examined using cryogenic electron microscopy (cryoTEM), as described in Example 4. PAs were dissolved in isotonic salt solutions resembling extracellular fluid (150 mM NaCl, 3 mM KCl, pH 7.4). […] In order to compare molecular simulation diameters with those observed from TEM, molecular simulation values for the other four PA molecules were scaled by the same amount, 87%.

Circular dichroism (CD) = format: physicochemical
Method: CD was done using a model J-715 Jasco Circular Dichroism Spectrometer. 1 wt % PA solutions were prepared in either a 150 mM NaCl, 3 mM KCl solution or a 150 mM NaCl, 3 mM KCl, and 5 mM CaCl2 solution, both at a pH of 7.2-7.4, as determined via pH paper. The solutions were then heated to 80° C. in a water bath for 1 hr, and then slowly cooled to room temperature over the course of 8 hr. The samples were measured through 0.01 mm quartz plates. Each trace represents the average of three scans. The mean residue ellipticity was corrected for purity of the lyophilized powder from peptide content analysis.

[4] = Small-angle X-ray scattering (SAXS) of PA nanostructures; format: physicochemical; conditions: for Total SAXS Cross-section dimensions: diameter
Text: Small-angle X-ray scattering (SAXS) measurements were obtained using a Rigaku S-MAX 3000 High Brilliance SAXS System. Cu Ka radiation was generated by Osmic MicroMaxs, an integrated microfocus sealed tube generator (powered at 45 kV and 0.9 mA) with Osmict Confocal Max-Fluxs optics, 3 pinholes collimation. A 20×20 cm^2 2D position-sensitive wire detector (1024×1024 pixels) was positioned 150 cm behind the examined samples, resulting in a q-range of 0.07-2.8 nm^−1. The wave vector defined as, q=(4π/λ)sin(2θ/2), where 2y is the scattering angle and λ is wavelength of Cu Kα radiation (1.542 Å). A total of 10^6 or more counts were collected in order to obtain a high signal to noise ratio. Samples were measured for 3600 s, and then background subtracted from data collected using a capillary containing the isotonic salt solution. The 2D SAXS patterns were azimuthally averaged and the background subtracted using standard methods. Data analysis was based on fitting the scattering curve to an appropriate model by a least-squares method using software provided by NIST (NIST SANS analysis version 7.0 on IGOR) ^21 The table below lists the models used to fit the SAXS curves. The Total SAXS cross-sectional dimensions correspond to length and width for molecule 2, and diameter for 3-5.

[5] = Transmission electron microscopy (cryoTEM / conventional TEM) of PA nanostructures; format: physicochemical; conditions: 1 wt % solution drop-cast and dried onto a TEM grid
[6] = test system: P19 embryonal carcinoma cells differentiated into neurons; test: Neurite outgrowth of neurons cultured in peptide amphiphile gels; format: cell-based, murine; conditions: compared to gels of PA 1; for promotion of neurite outgrowth (in words): gels containing 0.2 wt % of the PA with 0.8 wt % PA 1
Method: P19 embryonal carcinoma cells were cultured in media composed of α-MEM (Gibco), 7.5% newborn calf serum (Lonza), 2.5% fetal bovine serum (Gibco), penicillin (100 units/ml) and streptomycin (100 ug/ml) (Invitrogen). Neuronal differentiation was induced by plating P19 cells in non-treated Petri dishes in media containing 5 uM retinoic acid (Sigma) for 4 days. Neurospheres were collected from the Petri dish and allowed to settle in a centrifuge tube for 10 minutes. Media was removed, then trypsin/EDTA solution was added and the tube was gently agitated for 5 minutes. Cells were dissociated by triturating the neurospheres, then media was added to inactivate the trypsin. Cells were centrifuged and the pellet resuspended in media to a concentration of 25,000 cells/ul. Cells were mixed (1:4) with PA solution. The PA/cell solution was pipetted into coverslip-bottom culture dishes (MatTek) and covered with gelling solution (150 mM NaCl, 3 mM KCl, 25 mM CaCl2) for 1 minute to induce gelation, then rinsed with a 150 mM NaCl, 3 mM KCl solution, then media was added to the dish. Cells were cultured for 2 days.
In order to assay neurite outgrowth, gels were rinsed with PBS, then fixed in 4% paraformaldehyde for 30 minutes at room temperature. Gels were rinsed 3× with PBS followed by addition of 10% normal goat serum blocking solution (Invitrogen) with 0.1% Triton X-100 added. Gels were incubated overnight with primary antibody (rabbit anti-β-III-tubulin IgG, 1/2000, Covance) in blocking solution. Gels were rinsed 3× with PBS, then blocked for 30 minutes with blocking solution. Next, gels were incubated with secondary antibody (Alexa Fluor 488 goat anti-rabbit IgG, 1/100, Invitrogen) in blocking solution for 1 hour. After one PBS rinse, nuclei were stained with a 5 ug/ml solution of Hoecsht 34580 (Invitrogen) in PBS for 15 minutes, then rinsed 4 times. Gels were imaged on a Zeiss LSM 510 META laser scanning confocal microscope, individually acquiring z-stacks of randomly chosen cells with neurites. Two gels were imaged per condition for each experiment. Experiments were done in triplicate. For each condition, at least 50 neurons with neurites were imaged. Using the Simple Neurite Tracer plug-in for ImageJ software, neurites were traced and measured. A one-way ANOVA, followed by paired t-tests, were performed to determine significance between conditions. Researchers were blinded to the conditions during imaging and tracing.
Pluripotent murine P19 embryonal carcinoma cells were differentiated into neurons. These neurons were then homogeneously distributed into isotonic salt solutions composed of 0.8 wt % PA 1 mixed with 0.2 wt % 2-5 and gelled with 25 mM CaCl2 (FIG. 3a,b). Mixtures of 1 with 2-5 were used in biological experiments in order to form robust gel matrices capable of supporting cells in culture. After two days of culture, the cells were fixed and the neurites and nuclei were fluorescently labelled green and blue using β-III-tubulin immunostaining and Hoechst staining, respectively, then imaged by confocal microscopy (FIG. 14). Neurites were traced and measured, and average neurite lengths were calculated (FIG. 15).

[7] = (Core) Shell Cylinder SAXS model

hydrodynamic radius of spherical micelles (Dynamic light scattering): 8.6 nm | solubility [2]: soluble | diameter of cylindrical structures ([3]; cryoTEM, isotonic salt solution with 5 mM CaCl2 added): 9.9±1.1 nm | diameter of spherical micelles ([3]; cryoTEM, without CaCl2): 5.3±1.1 nm | OBSERVED FIBER DIAMETER ([3]; from TEM): 108 ± 15 Å | ASSEMBLED MORPHOLOGY ([3]; observed morphologies from TEM): Cylindrical fiber | peptide secondary structure from CD spectrum (Circular dichroism (CD); 150 mM NaCl, 3 mM KCl with 5 mM CaCl2 added): presence of β-sheet structure | peptide secondary structure from CD spectrum (Circular dichroism (CD); 1 wt % in 150 mM NaCl, 3 mM KCl): random coil peptide structure | Core Diameter [4, 7]: 1.2 nm | Shell Thickness [4, 7]: 2.0 ± 0.6 nm | Total SAXS Cross-section dimensions [4, 7]: 6.4 ± 1.8 nm | Core Diameter ([4]; (Core) Shell Sphere SAXS model): 1.46 nm | Shell Thickness ([4]; (Core) Shell Sphere SAXS model): 1.4 ± 0.6 nm | Total SAXS Cross-section dimensions ([4]; (Core) Shell Sphere SAXS model): 5.9±1.2 nm | Total SAXS Cross-section dimensions ([4]; (Core) Shell Sphere SAXS model, listed as 5): 5.9±1.2 nm | average diameter of cylindrical nanofibers [5]: 10.8±1.5 nm
Compound: CCCCCCCCCCCCCCCC(=O)N[C@H](C(=O)N[C@H](C(=O)N[C@@H](C)C(=O)N[C@@H](C)C(=O)N[C@@H](CCC(=O)O)C(=O)N[C@@H](CCC(=O)O)C(=O)N[C@@H](CCC(=O)O)C(=O)N[C@@H](CCC(=O)O)C(=O)NCC(=O)N[C@H](C(=O)N[C@@H](CCCCN)C(=O)N[C@H](C(=O)N[C@@H](C)C(=O)N[C@H](C(=O)O)C(C)C)C(C)C)[C@@H](C)CC)C(C)C)C(C)C [PA 5, CH3(CH2)14C(O)-VVAAEEEEGIKVAV-OH] (Palmitoyl-VVAAEEEEGIKVAV-OH)
increase in neurite length [1]: 57±14% | promotion of neurite outgrowth (in words) [6]: promoted neurite outgrowth | promotion of neurite outgrowth (in words) ([6]; listed as SEQ ID NO. 7): promote neurite outgrowth | increase in neurite outgrowth ([6]; gels of 0.8 wt % PA 1 mixed with 0.2 wt % of the PA, gelled with 25 mM CaCl2, 2 days culture): 88±13%
